Publication PMC4183567, “Cysteine Transport through Excitatory Amino Acid Transporter 3 (EAAT3)” (PLoS ONE, 2014)
“And” between values parts separate entries of the source, which are not always exact repeats. Identical values can stand only once.

Legend:
EAAT3 and ASCT1 [1] = target: T1, EAAT3 and ASCT1 (Homo sapiens, UniProt P43005); experiment: Release of preloaded [3H]-L-glutamate from Xenopus oocytes co-expressing EAAT3 and ASCT1; assay type: cell-based; details: extracellular cysteine, concentration not given
T1 construct: expressed in transfected cells; host or cells: Xenopus oocytes
T1 sequence (P43005 1-524): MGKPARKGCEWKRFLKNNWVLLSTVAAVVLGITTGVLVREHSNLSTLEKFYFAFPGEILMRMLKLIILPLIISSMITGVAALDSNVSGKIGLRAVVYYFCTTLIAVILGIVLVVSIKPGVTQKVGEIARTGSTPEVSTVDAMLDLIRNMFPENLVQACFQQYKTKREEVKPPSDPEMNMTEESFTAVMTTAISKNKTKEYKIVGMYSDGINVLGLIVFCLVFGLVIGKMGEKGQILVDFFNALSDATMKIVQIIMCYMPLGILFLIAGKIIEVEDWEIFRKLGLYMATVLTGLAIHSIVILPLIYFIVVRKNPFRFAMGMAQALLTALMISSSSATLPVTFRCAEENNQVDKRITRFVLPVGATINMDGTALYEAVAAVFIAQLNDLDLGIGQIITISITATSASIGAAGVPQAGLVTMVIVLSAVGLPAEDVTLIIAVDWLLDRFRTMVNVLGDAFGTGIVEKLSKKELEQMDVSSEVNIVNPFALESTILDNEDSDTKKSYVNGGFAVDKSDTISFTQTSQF
Procedure: (§1) mRNA from linearized pOTV-EAAT1, pOTV-EAAT2 and pOTV-EAAT3 was generated as previously described and resuspended in RNAase-free water and used for oocytes injections. Xenopus oocytes where injected with 50 nl of mRNA and incubated at 18°C in 96 mM NaCl, 2 mM KCl, 1.8 mM CaCl2, 1.0 mM MgCl2, 5 mM HEPES, pH 7.4 (ND96) supplemented with 2.5 mM Sodium Pyruvate and Gentamicyn for 2 to 3 days prior to using in electrophysiological recordings and radio-labeled transport experiments.
(§2) Oocytes were washed 3 times in ND96 buffer followed by incubation for 10 min with non-radiolabeled substrates as indicated. The supernatant was removed and collected for scintillation counting, while the oocytes were lysed in 1% sodium dodecylsulfate (SDS). The oocytes lysate and supernatant were counted separately by liquid scintillation counting to determine both retained and released radioactivity respectively. Percent of released radioactivity was determined as a function of the released/(retained + released).

EAAT3 [2] = target: T2, EAAT3 (Homo sapiens, UniProt P43005); experiment: Substrate inhibition of [3H]-L-glutamate uptake in HEK293 cells expressing EAAT3; assay type: cell-based; set-up: expressed in transfected cells; host or cells: HEK293
T2 sequence (P43005 1-524): T1 sequence (P43005 1-524)
Procedure: (§3) For radiolabeled transport experiments, 2×10^6 cells were transfected in 1 mL of Opti-Mem (Life Technologies) using 6 µL of Lipofectamine 2000 (Invitrogen) with 1 µg pCMV-EAAT2 or pCMV-EAAT3 DNA and plated at 5×10^4 cells/well in 24 well Costar (Corning) plates with 0.5 mL DMEM culture media prepared as above. Following transfection and plating, cells were cultured 2–3 days prior to [^3H]-L-Glutamate transport experiments.
(§4) Transport was allowed to proceed for 10 min and was terminated by 3 washes with cold perfusion buffer. Cells were lysed with 1% SDS/0.1N NaOH and radioactivity determined by scintillation counting. Data analysis was performed using Graphpad Prism (Graphpad Software Inc.).

EAAT2 [3] = target: T3, EAAT2 (Homo sapiens, UniProt P43004); experiment: mEGFPpH fluorescence imaging of intracellular pH in HEK293 cells co-expressing EAAT2; assay type: cell-based; set-up: expressed in transfected cells; host or cells: HEK293
Description: (§6) Cells expressing mEGFPpH were imaged with a Zeiss Axiovert 135T inverted microscope with a 40X NeoFluar oil immersion objective (NA1.3). A Lambda DG4 (Sutter Instrument Co.) equipped with a xenon arc lamp was used for high-speed excitation wavelength switching. Images were collected using either a Quantix (Roper Scientific, Tucson, AZ) or an Orca ER (Hammamatsu Co.) cooled CCD. For pH imaging experiments, the fluorescence filters (Omega Optical) were: excitation 405±20 and 485±7.5; dichroic 400-480-585DLRP; emission 510±11.5. Software control and data acquisition were accomplished using Axon Imaging Workbench (INDEC Biosystems) or OpenLab acquisition software (Improvision, Perkin Elmer). Cells were incubated at room temperature with continuous perfusion using standard buffer containing (in mM): 146 NaCl, 5 KCl, 5 HEPES, 2.5 CaCl2 and 1.2 MgCl2 at pH 7.35 with additions (substrates etc.) as indicated in figure legends. Acquisition exposure times were identical for both 405 nm and 485 nm excitation wavelengths adjusted so that the 510 emission was not saturated for either excitation wavelength. Prior to perfusion with buffers containing substrates, cells were perfused in standard buffer to achieve a stable base line. Fluorescence was reported as the ratio of fluorescence at 510 nm by excitation with 485 and 405 nm wavelengths (F485/F405).

EAAT3 [4] = target: T2, EAAT3; experiment: mEGFPpH fluorescence imaging of intracellular pH in HEK293 cells co-expressing EAAT3; details: EAAT3 HEK293 cells
Description: as §6

[5] = Protonation state calculated with the Henderson-Hasselbalch equation; assay type: physicochemical
EAAT2 [6] = target: T3, EAAT2; experiment: Substrate inhibition of [3H]-L-glutamate uptake in HEK293 cells expressing EAAT2; assay type: cell-based; set-up: expressed in transfected cells; host or cells: HEK293; details: read-out: inhibition of glutamate transport; EAAT2 HEK293 cells, 1 mM inhibitor
Procedure: as §3, §4

EAAT2 [7] = system: EAAT2; set-up: method as in PMID 8782106; details: EAAT2, low affinity; read-out: Km for cysteine transport; cited from earlier work
EAAT1 = target: T4, EAAT1 (Homo sapiens, UniProt P43003); experiment: Two-electrode voltage clamp transport currents in Xenopus oocytes expressing EAAT1; assay type: cell-based; details: 1 mM substrate vs 1 mM glutamate, -60 mV
T4 construct: expressed in transfected cells; host or cells: Xenopus oocytes injected with mRNA
Procedure: as §1
(§5) Oocytes were held at −60 mV, and currents elicited by 200 ms voltage steps between −120 mV and +60 mV were filtered at 2 kHz (−3dB) and digitalized with a sampling rate of 10 kHz using a Digidata AD/DA converter (Molecular Devices, Sunnyvale, CA, USA). Borosilicate pipets where filled with 3 M KCl and typical resistances where 0.2 to 1 MΩ. Transport currents were determined at −60 mV in a gluconate-based ND96 solution. In order to dialyze internal chloride, oocytes were incubated 12 to 24 hours in the gluconate solution. Anion currents were determined at positive potentials (+60 mV) after exchanging the external solution to NO3-based ND96 (replacement of 96 mM NaCl with 96 mM NaNO3) solution in the absence or in the presence of 1 mM external substrates. […] Data were analyzed with a combination of pClamp 9.2 (Axon Instrument) and Sigma Plot (Jandel Scientific, San Rafael, CA, USA). […]

EAAT2 [8] = target: T3, EAAT2; experiment: Two-electrode voltage clamp transport currents in Xenopus oocytes expressing EAAT2; assay type: cell-based; details: 1 mM substrate vs 1 mM glutamate, -60 mV
Procedure: as §1, §5

EAAT3 [9] = target: T2, EAAT3; experiment: Two-electrode voltage clamp transport currents in Xenopus oocytes expressing EAAT3; assay type: cell-based; details: 1 mM substrate vs 1 mM glutamate, EAAT3 oocytes, -60 mV
Procedure: as §1
Oocytes were held at −60 mV, and currents elicited by 200 ms voltage steps between −120 mV and +60 mV were filtered at 2 kHz (−3dB) and digitalized with a sampling rate of 10 kHz using a Digidata AD/DA converter (Molecular Devices, Sunnyvale, CA, USA). Borosilicate pipets where filled with 3 M KCl and typical resistances where 0.2 to 1 MΩ. Transport currents were determined at −60 mV in a gluconate-based ND96 solution. In order to dialyze internal chloride, oocytes were incubated 12 to 24 hours in the gluconate solution. Anion currents were determined at positive potentials (+60 mV) after exchanging the external solution to NO3-based ND96 (replacement of 96 mM NaCl with 96 mM NaNO3) solution in the absence or in the presence of 1 mM external substrates. In experiments using cysteine as a substrate, all solutions contained 2 mM dithiothreitol (DTT). Data were analyzed with a combination of pClamp 9.2 (Axon Instrument) and Sigma Plot (Jandel Scientific, San Rafael, CA, USA). Whole cell current amplitudes are shown without any subtraction protocol. Current-voltage relationships were constructed by plotting the isochronal current 6 ms after the voltage step versus the membrane potential. All data are given as the mean ± standard deviation of the mean (SDM). For evaluation the statistical relevance, the Student’s t-Test was used with an α of 0.05.

EAAT3 and ASCT1 [10] = experiment: Release of preloaded [35S]-L-cysteine from Xenopus oocytes co-expressing EAAT3 and ASCT1; assay type: cell-based, human
Procedure: mRNA from linearized pOTV-EAAT1, pOTV-EAAT2 and pOTV-EAAT3 was generated as previously described and resuspended in RNAase-free water and used for oocytes injections.
as §2

EAAT3 [11] = system: EAAT3; set-up: method as in PMID 8782106; details: EAAT3 vs other EAATs; cited from earlier work

T3 sequence (P43004 whole entry): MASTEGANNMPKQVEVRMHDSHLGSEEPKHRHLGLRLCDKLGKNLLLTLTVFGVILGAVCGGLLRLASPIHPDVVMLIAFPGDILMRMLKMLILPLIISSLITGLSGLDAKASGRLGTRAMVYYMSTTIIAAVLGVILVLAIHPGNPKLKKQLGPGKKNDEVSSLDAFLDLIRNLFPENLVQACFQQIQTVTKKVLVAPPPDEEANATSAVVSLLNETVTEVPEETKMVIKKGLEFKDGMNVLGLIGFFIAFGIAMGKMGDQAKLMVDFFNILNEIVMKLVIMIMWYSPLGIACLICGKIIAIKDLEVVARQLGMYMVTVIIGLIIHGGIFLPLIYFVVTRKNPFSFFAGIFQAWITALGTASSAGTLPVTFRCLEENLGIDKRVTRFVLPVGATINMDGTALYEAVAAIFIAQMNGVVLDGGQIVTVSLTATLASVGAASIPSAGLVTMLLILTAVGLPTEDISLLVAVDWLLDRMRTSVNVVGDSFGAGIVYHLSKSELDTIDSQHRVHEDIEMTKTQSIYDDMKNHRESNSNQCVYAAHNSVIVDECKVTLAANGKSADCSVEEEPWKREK
T4 sequence (P43003 whole entry): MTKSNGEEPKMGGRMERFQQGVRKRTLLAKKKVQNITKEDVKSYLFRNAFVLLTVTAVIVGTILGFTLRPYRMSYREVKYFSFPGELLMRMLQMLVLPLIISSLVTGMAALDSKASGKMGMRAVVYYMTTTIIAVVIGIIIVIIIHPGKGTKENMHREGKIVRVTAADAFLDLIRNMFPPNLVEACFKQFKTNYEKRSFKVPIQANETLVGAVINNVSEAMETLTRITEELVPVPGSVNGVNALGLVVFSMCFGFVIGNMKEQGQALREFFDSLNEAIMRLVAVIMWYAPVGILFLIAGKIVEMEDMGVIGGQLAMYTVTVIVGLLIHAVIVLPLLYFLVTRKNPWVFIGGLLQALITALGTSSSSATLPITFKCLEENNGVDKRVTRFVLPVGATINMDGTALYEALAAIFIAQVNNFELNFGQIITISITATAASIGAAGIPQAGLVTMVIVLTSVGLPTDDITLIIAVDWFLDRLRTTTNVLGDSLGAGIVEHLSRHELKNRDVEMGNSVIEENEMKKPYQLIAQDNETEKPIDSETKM

release of loaded [3H]-L-glutamate (EAAT3 and ASCT1 [1]): 7.5%
IC50 (EAAT3 [2]): 631 ± 50 µM
inhibition at 1000 µM (EAAT3 [2]; read-out: inhibition of glutamate uptake, EAAT3 HEK293 cells, 1 mM inhibitor): 70%
slope of fluorescence change normalized to that of 100 µM glutamate (EAAT2 [3]; selenocysteine at 100 µM): no observable fluorescence changes
mEGFPpH fluorescence change (EAAT3 [4]; 1 mM perfusion): increase in mEGFPpH fluorescence
slope of fluorescence change normalized to that of 100 µM glutamate (EAAT3 [4]; selenocysteine at 100 µM, cysteine change opposite in direction): 0.28±0.03
fraction in thiolate form ([5]; pH 6.9): ~3.8% and 4%
fraction in thiolate (R-S-) form ([5]; pH 8.5): ~61%
fraction in thiolate form ([5]; pH = 7.5): ~14%
fraction protonated ([5]; physiological pH): ~90%
inhibition at 1000 µM (EAAT2 [6]): 20%
transport current amplitude relative to glutamate transport current (EAAT1): 33±1.5%
transport current amplitude relative to glutamate transport current (EAAT2 [8]): 7.0±4.2%
transport current amplitude relative to glutamate transport current (EAAT3 [9]): 86±14%
Compound: N[C@@H](CS)C(=O)O [cysteine, L-cysteine]
mEGFPpH fluorescence change (EAAT2 [3]; 1 mM perfusion): did not produce observable fluorescence changes from baseline
Km (EAAT2 [7]): > 1000 µM
fold increase of [35S]-cysteine release over that released by glutamate application (EAAT3 and ASCT1 [10]; 300 µM cysteine vs 100 µM glutamate): 5 fold
release of preloaded [35S]-L-cysteine (EAAT3 and ASCT1 [10]; 300 µM extracellular substrate, 10 min): 10%
fold higher apparent affinity for transport (Km) than the other members of the family (EAAT3 [11]): approximately 10 fold
